The target in the test is T1, Solute carrier family 22 member 6 (Homo sapiens, UniProt Q4U2R8).
T1 sequence (Q4U2R8 whole entry): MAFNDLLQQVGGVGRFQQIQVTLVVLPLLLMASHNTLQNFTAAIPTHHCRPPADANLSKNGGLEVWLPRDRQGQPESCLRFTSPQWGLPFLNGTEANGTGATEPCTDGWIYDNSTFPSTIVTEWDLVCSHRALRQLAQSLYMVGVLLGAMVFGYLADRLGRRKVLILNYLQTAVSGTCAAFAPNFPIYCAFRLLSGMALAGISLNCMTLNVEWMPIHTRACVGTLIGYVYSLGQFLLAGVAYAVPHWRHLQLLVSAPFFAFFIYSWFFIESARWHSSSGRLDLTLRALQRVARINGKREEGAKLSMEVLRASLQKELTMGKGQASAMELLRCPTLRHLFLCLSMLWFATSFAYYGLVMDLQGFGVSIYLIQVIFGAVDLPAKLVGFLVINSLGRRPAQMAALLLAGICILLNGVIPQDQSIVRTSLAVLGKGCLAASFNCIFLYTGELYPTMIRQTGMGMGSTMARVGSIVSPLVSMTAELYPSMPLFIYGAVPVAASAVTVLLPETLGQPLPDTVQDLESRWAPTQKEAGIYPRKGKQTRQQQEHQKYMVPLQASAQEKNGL
Kind of test: TP_TRANSPORTER: inhibition of PAH uptake in OAT1-expressing OK cells. The class given is functional, cell-based.

As to `O=C(O)CNC(=O)c1ccc(O)cc1`, half-maximal inhibition (IC50) required 25 µM.
